{"source": "ChEMBL document CHEMBL1149470", "about": "“Identification and structure-based optimization of novel dihydropyrones as potent HCV RNA polymerase inhibitors” (Bioorg Med Chem Lett, 2006)", "key": {"[1]": {"target": "RNA-directed RNA polymerase (Hepacivirus hominis, UniProt O39930)", "sequence (O39930 whole entry)": "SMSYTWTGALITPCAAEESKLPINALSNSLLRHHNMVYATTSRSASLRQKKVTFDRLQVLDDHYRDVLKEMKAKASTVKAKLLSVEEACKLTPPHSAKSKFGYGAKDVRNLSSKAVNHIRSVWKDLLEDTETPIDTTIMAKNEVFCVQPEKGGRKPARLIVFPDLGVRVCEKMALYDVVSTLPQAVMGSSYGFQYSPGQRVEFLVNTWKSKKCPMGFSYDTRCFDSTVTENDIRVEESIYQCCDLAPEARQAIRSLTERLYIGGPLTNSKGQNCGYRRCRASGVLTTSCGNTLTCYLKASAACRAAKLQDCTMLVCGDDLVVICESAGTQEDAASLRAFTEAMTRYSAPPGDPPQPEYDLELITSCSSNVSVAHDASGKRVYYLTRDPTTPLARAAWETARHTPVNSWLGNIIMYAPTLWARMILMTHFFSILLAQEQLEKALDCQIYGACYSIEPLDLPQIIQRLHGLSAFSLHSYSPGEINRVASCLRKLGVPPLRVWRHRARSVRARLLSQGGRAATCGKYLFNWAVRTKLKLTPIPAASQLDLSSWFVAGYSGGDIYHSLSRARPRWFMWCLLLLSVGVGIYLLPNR", "assay": "Inhibitory activity against HCV 1b BK NS5B deltaC21 RNA polymerase", "parameters": "species or system Hepatitis C virus subtype 1b"}, "Hepatitis C virus": {"tested_on": "Hepatitis C virus", "assay": "Antiviral activity against HCV 1b in Huh7 cell line upto 10 uM by replicon assay", "assay_type": "functional, cell-based", "conditions": "Hepacivirus hominis; genotype 1b; Huh-7"}}, "note": "Active and inactive are the calls of the source. The rule behind the calls is not given here.", "data": [{"compound": "COc1ccc(CCC2(C3CCCC3)CC(=O)C(Sc3nncn3C)=C(O)O2)cc1Cl", "note": "(configuration not stated)", "values": [{"measurement": "IC50", "setting": "[1]", "result": 38, "unit": "nM"}, {"measurement": "Activity", "setting": "Hepatitis C virus", "result": "inactive"}]}, {"compound": "COc1ccc(CCC2(C3CCCC3)CC(=O)CC(=O)O2)cc1", "note": "(configuration not stated)", "values": [{"measurement": "IC50", "setting": "[1]", "result": 9700, "unit": "nM"}, {"measurement": "Activity", "setting": "Hepatitis C virus", "result": "inactive"}]}, {"compound": "CCOc1ccc(CCC2(C3CCCC3)CC(=O)CC(=O)O2)cc1F", "note": "(configuration not stated)", "values": [{"measurement": "IC50", "setting": "[1]", "result": 790, "unit": "nM"}, {"measurement": "Activity", "setting": "Hepatitis C virus", "result": "inactive"}]}, {"compound": "CC1(CCc2ccc(O)cc2)CC(=O)CC(=O)O1", "note": "(configuration not stated)", "values": [{"measurement": "IC50", "setting": "[1]", "result": "> 100000", "unit": "nM"}, {"measurement": "Activity", "setting": "Hepatitis C virus", "result": "inactive"}]}, {"compound": "O=C1CC(=O)OC(CCc2ccc(O)cc2)(C2CCCCC2)C1", "note": "(configuration not stated)", "values": [{"measurement": "IC50", "setting": "[1]", "result": 52000, "unit": "nM"}, {"measurement": "Activity", "setting": "Hepatitis C virus", "result": "inactive"}]}, {"compound": "COc1ccc(CCC2(C3CCCC3)CC(=O)C(Sc3ccc(O)cc3)=C(O)O2)cc1Cl", "note": "(configuration not stated)", "values": [{"measurement": "IC50", "setting": "[1]", "result": 130, "unit": "nM"}, {"measurement": "Activity", "setting": "Hepatitis C virus", "result": "inactive"}]}, {"compound": "CCc1cccc(CCC2(C3CCCC3)CC(=O)CC(=O)O2)c1", "note": "(configuration not stated)", "values": [{"measurement": "IC50", "setting": "[1]", "result": 3600, "unit": "nM"}, {"measurement": "Activity", "setting": "Hepatitis C virus", "result": "inactive"}]}, {"compound": "O=C1CC(=O)OC(CCc2ccccc2)(C2CCCC2)C1", "note": "(configuration not stated)", "values": [{"measurement": "IC50", "setting": "[1]", "result": 48000, "unit": "nM"}, {"measurement": "Activity", "setting": "Hepatitis C virus", "result": "inactive"}]}, {"compound": "CCOc1ccc(CCC2(C3CCCC3)CC(=O)CC(=O)O2)cc1", "note": "(configuration not stated)", "values": [{"measurement": "IC50", "setting": "[1]", "result": 2900, "unit": "nM"}, {"measurement": "Activity", "setting": "Hepatitis C virus", "result": "inactive"}]}, {"compound": "CC(C)Oc1ccc(CCC2(C3CCCC3)CC(=O)CC(=O)O2)cc1F", "note": "(configuration not stated)", "values": [{"measurement": "Activity", "setting": "Hepatitis C virus", "result": "inactive"}]}, {"compound": "Cc1cccc(CCC2(C3CCCC3)CC(=O)CC(=O)O2)c1", "note": "(configuration not stated)", "values": [{"measurement": "IC50", "setting": "[1]", "result": 23000, "unit": "nM"}, {"measurement": "Activity", "setting": "Hepatitis C virus", "result": "inactive"}]}, {"compound": "COc1ccc(CCC2(C3CCCC3)CC(=O)CC(=O)O2)cc1Cl", "note": "(configuration not stated)", "values": [{"measurement": "IC50", "setting": "[1]", "result": 1000, "unit": "nM"}, {"measurement": "Activity", "setting": "Hepatitis C virus", "result": "inactive"}]}, {"compound": "COc1ccc(CCC2(C3CCCC3)CC(=O)C(Sc3nnnn3C)=C(O)O2)cc1Cl", "note": "(configuration not stated)", "values": [{"measurement": "IC50", "setting": "[1]", "result": 280, "unit": "nM"}, {"measurement": "Activity", "setting": "Hepatitis C virus", "result": "inactive"}]}, {"compound": "O=C1CC(=O)OC(CCc2cccc(Cl)c2)(C2CCCC2)C1", "note": "(configuration not stated)", "values": [{"measurement": "IC50", "setting": "[1]", "result": 5000, "unit": "nM"}, {"measurement": "Activity", "setting": "Hepatitis C virus", "result": "inactive"}]}, {"compound": "Cc1cc(SC2=C(O)OC(CCc3ccc(O)cc3)(C3CCCC3)CC2=O)c(C(C)(C)C)cc1N", "note": "(configuration not stated)", "values": [{"measurement": "IC50", "setting": "[1]", "result": 930, "unit": "nM"}, {"measurement": "Activity", "setting": "Hepatitis C virus", "result": "inactive"}]}, {"compound": "COc1ccc(CCC2(C3CCCC3)CC(=O)C(Sc3ccccc3)=C(O)O2)cc1Cl", "note": "(configuration not stated)", "values": [{"measurement": "IC50", "setting": "[1]", "result": 560, "unit": "nM"}, {"measurement": "Activity", "setting": "Hepatitis C virus", "result": "inactive"}]}, {"compound": "COc1ccc(CCC2(C3CCCC3)CC(=O)C(Sc3nccn3C)=C(O)O2)cc1Cl", "note": "(configuration not stated)", "values": [{"measurement": "IC50", "setting": "[1]", "result": 140, "unit": "nM"}, {"measurement": "Activity", "setting": "Hepatitis C virus", "result": "inactive"}]}, {"compound": "CC(C)c1cccc(CCC2(C3CCCC3)CC(=O)CC(=O)O2)c1", "note": "(configuration not stated)", "values": [{"measurement": "IC50", "setting": "[1]", "result": 1800, "unit": "nM"}, {"measurement": "Activity", "setting": "Hepatitis C virus", "result": "inactive"}]}, {"compound": "CC(C)c1ccc(CCC2(C3CCCC3)CC(=O)CC(=O)O2)cc1", "note": "(configuration not stated)", "values": [{"measurement": "IC50", "setting": "[1]", "result": 4300, "unit": "nM"}, {"measurement": "Activity", "setting": "Hepatitis C virus", "result": "inactive"}]}, {"compound": "CC(C)Oc1ccc(CCC2(C3CCCC3)CC(=O)CC(=O)O2)cc1", "note": "(configuration not stated)", "values": [{"measurement": "IC50", "setting": "[1]", "result": 1700, "unit": "nM"}, {"measurement": "Activity", "setting": "Hepatitis C virus", "result": "inactive"}]}, {"compound": "COc1ccc(CCC2(C3CCCC3)CC(=O)CC(=O)O2)cc1F", "note": "(configuration not stated)", "values": [{"measurement": "IC50", "setting": "[1]", "result": 890, "unit": "nM"}, {"measurement": "Activity", "setting": "Hepatitis C virus", "result": "inactive"}]}, {"compound": "O=C1CC(=O)OC(CCc2ccc(O)cc2)(C2CCC2)C1", "note": "(configuration not stated)", "values": [{"measurement": "IC50", "setting": "[1]", "result": 93000, "unit": "nM"}, {"measurement": "Activity", "setting": "Hepatitis C virus", "result": "inactive"}]}, {"compound": "O=C1CC(=O)OC(CCc2ccc(O)cc2)(C2CCCC2)C1", "note": "(configuration not stated)", "values": [{"measurement": "IC50", "setting": "[1]", "result": 8200, "unit": "nM"}, {"measurement": "Activity", "setting": "Hepatitis C virus", "result": "inactive"}]}, {"compound": "CCCC1(CCc2ccc(OC)cc2)CC(=O)CC(=O)O1", "note": "(configuration not stated)", "values": [{"measurement": "IC50", "setting": "[1]", "result": "> 50000", "unit": "nM"}, {"measurement": "Activity", "setting": "Hepatitis C virus", "result": "inactive"}]}]}
